Earlier results as cited in US8758740B2, “Composition for promoting ketone body production” (Earthus, Inc, priority 2007, dated 2014).
Where two headings read alike, the source gives them in different places.

How the values were obtained:
[1] = dog
[2] = single oral bolus, 10 g of the cyclic trimer

For `C[C@@H]1CC(=O)O[C@H](C)CC(=O)O[C@H](C)CC(=O)O1` [cyclic trimer], the “blood ketone body level” value ([1]; meat with 23.5 g cyclic trimer four times over 9 hours, after the third administration (at 6 hours)) is listed as 30 times of the normal level, the “blood hydroxybutyric acid level” value ([1]; meat with 23.5 g cyclic trimer four times over 9 hours, within 30 minutes from the first administration) is listed as “about 50 times of the normal level” and the “highest blood hydroxybutyric acid level” value [1, 2] is listed as “more than 5 times of the normal level”. For the same compound, the “time of the highest blood hydroxybutyric acid level from the administration” value [1, 2] was 90 min, the “blood level of ketone bodies” value (80 minutes after oral administration of diet containing 11 wt % of the trimer) was 1.8 times of the normal level and the “blood level of ketone bodies” value (150 minutes after oral administration of diet containing 11 wt % of the trimer) was 2.4 times of the normal level.
